Laboratory results published in patent US20110144077A1, “TREATMENT OF RETINAL DEGENERATION” (priority 2008, published 2011).
Entries after “also recorded” stand apart in the source; their conditions may differ.

How the values were obtained:
[1] = tested on: photoreceptor cells in the outer nuclear layer (ONL); assay: rd10 model of chronic retinal degeneration; format: in vivo, rd10 mouse
Method: Peanut agglutinin (PNA) staining: Eyes were fixed in 10% neutral buffered formalin overnight at 4° C., followed by cryoprotection in 25% sucrose overnight at 4° C. Frozen sections (7 μm) were blocked with 0.1% bovine serum albumin (BSA) in 0.1% tween/PBS for 30 minutes at room temperature. Sections were incubated with rhodamine conjugated PNA (Invitrogen, Dun Laoghaire, Ireland) for 20 minutes at room temperature as per manufacturers' instructions. Sections were mounted and viewed under a fluorescence microscope (Leica DM LB2; Leica, Nussloch, Germany) using a TRITC filter. Immunofluorescence: Eyes were fixed in 10% neutral buffered formalin overnight at 4° C., followed by cryoprotection in 25% sucrose overnight at 4° C. Frozen sections (7 μm) were blocked with 0.1% bovine serum albumin (BSA) in 0.1% tween/PBS for 1 hour at room temperature. Sections were incubated with anti-rhodopsin antibody (LAB VISION Corporation, Fremont, Calif., USA) overnight at 4° C. Sections were washed and incubated with FITC conjugated secondary mouse antibody (Dako, Glostrup, Denmark) for 1 hour at room temperature. Following further washes, sections were mounted and viewed under a fluorescence microscope (Leica DM LB2; Leica, Nussloch, Germany) using a FITC filter. […] It is a better model of the slow progression of typical human autosomal recessive RP than the acute light model as photoreceptor cells are lost over a period of weeks rather than days. Loss of photoreceptors in the rd10 mouse begins at approximately 2 weeks of age, with the peak of photoreceptor death occurring at postnatal day (P) 25.

photoreceptor cells = assay: Light damage model in vivo, TUNEL staining of ONL; parameters: species or system albino balb/c mice
Method: (§1) Apoptosis detection by Terminal deoxynucleotidyl transferase-mediated biotinylated UTP nick end labeling (TUNEL): Retinal explants were fixed in 10% neutral buffered formalin overnight at 4° C., followed by cryoprotection in 25% sucrose overnight at 4° C. Frozen sections (7 μm) were incubated with terminal deoxynucleotidyl transferase (MSC, Dublin, Republic of Ireland) and fluorescein-12-dUTP (Roche, Lewes, UK) according to manufacturers' instructions at 37° C. for 1 h. Sections were mounted and viewed under a fluorescence microscope (Leica DM LB2; Leica, Nussloch, Germany) using an FITC filter.
Light damage model: Balb/c mice were dark adapted for 18 h prior to exposure to constant light. Mice were injected intraperitoneally with 100 mg/kg of norgestrel 1 hour prior to light damage. Immediately prior to light exposure their pupils were dilated with 0.5% cyclopentolate under red light. Retinal light damage was induced by exposure to 2 h of cool white fluorescent light at an illumination of 5000 lux. Following exposure to constant light, animals were placed in the dark for 24 h then killed immediately by cervical dislocation.
TUNEL staining was performed as described above.

[2] = tested on: photoreceptor cells in the outer nuclear layer (ONL); assay: Retinal explant culture, SNP induced apoptosis detected by TUNEL; format: cell-based, C57BL/6 mice
Method: Retinal explant culture: Eyes from postnatal day 10, C57BL/6 mice were removed and cleaned with 70% ethanol. The anterior segment, vitreous body, and sclera were removed and the retina mounted on Millicell nitrocellulose inserts (Millipore, Billerica, Mass.) photoreceptor-side down. Explants were cultured without retinal pigment epithelium (RPE) in 1.2 ml of R16 specialised media (from Dr. P. A. Ekstrom, Wallenberg Retina Centre, Lund University, Lund, Sweden) without additional serum. Treated explants were cultured in medium containing 300 μM of the nitric oxide donor SNP (sodium nitroprusside) for 24 h. Pre-treatment with norgestrel was for 1 hour.
as §1

[3] = compared to uninjected or vehicle injected controls

C#CC1(O)CC[C@H]2[C@@H]3CCC4=CC(=O)CC[C@@H]4[C@H]3CC[C@@]21CC (mixture of isomers) [norgestrel]
protection of layers of photoreceptor nuclei, central retina ([1]; 100 mg/kg IP every second day P18-P30, central retina): 1-2 layers
protection of layers of photoreceptor nuclei, peripheral retina ([1]; 100 mg/kg IP every second day P18-P30, peripheral retina): 4-5 layers
protection of layers of photoreceptor nuclei in the ONL, central retina ([1]; 100 mg/kg injected daily, P25, central retina): 3-4 layers
protection of layers in the ONL, peripheral retina ([1]; 100 mg/kg injected daily, P25, peripheral retina): 3-4 layers
degeneration of central retina, photoreceptor nuclei remaining at P25 and P30 versus vehicle ([1]; central retina, P25 and P30): degenerates more slowly
PNA staining (cone photoreceptors) in the ONL [1, 3]: more cone cells are found
rhodopsin immunofluorescent staining (rod photoreceptors) in the ONL [1, 3]: more rhodopsin positive cells remain
degeneration of peripheral retina between P25 and P30 versus vehicle ([1]; peripheral retina, P25 to P30): degeneration of the peripheral retina virtually ceases
protection with injection every second day versus daily ([1]; rd10, P25, every second day compared with daily): equally as protected
protection of photoreceptors from light induced retinal damage / apoptosis (photoreceptor cells; 100 mg/kg IP, 1 hour before 2 h light damage): protects from the retinal damage observed; also recorded: Photoreceptors are protected
duration of protection after a single injection (photoreceptor cells; 100 mg/kg, single injection, post light damage): 72 h
protection from light induced cell death (TUNEL positive cells) (photoreceptor cells; central retina, 24 hours, 100 mg/kg): approx 70%
protection of photoreceptors from SNP induced apoptosis (TUNEL) ([2]; ex vivo retinal explants, 300 μM SNP for 24 h, 1 hour norgestrel pre-treatment, increasing concentrations): protected from SNP induced apoptosis; also recorded: protects photoreceptive cells from SNP induced cell death
toxicity to retinal cells ([2]; retinal explants, norgestrel alone at the highest concentration used): not toxic to retinal cells
